# Laboratory results as given in US9422318B2, “Epoxyeicosatrienoic acid analogs and methods of making and using the same” (THE MEDICAL COLLEGE OF WISCONSIN, INC., priority 2011, dated 2016).
# Entries after “also recorded” stand apart in the source; their conditions may differ.
# Columns and labels:
# [1] = tested on: cisplatin-induced nephrotoxicity in Wistar-Kyoto (WKY) rats; assay: Cisplatin-induced nephrotoxicity in rats; type: in vivo, rat
# Description: Experiments were approved and carried out according to the guidelines of the Institutional Animal Care and Use Committee, Medical College of Wisconsin, Milwaukee, USA. Male Wistar-Kyoto (WKY) rats weighing 180-200 g (Charles River, Mass., USA). All animals were kept in a temperature-controlled environment with a 12-h light/dark cycle and were allowed free access to food and water at all times. An acclimatization period of 6 days was allowed for the rats before experimentation. The rats were assigned into four groups. […] Rats received drinking water ad libitum for seven days and on day 7 DMSO (Sigma Aldrich, St. Louis, Mo., USA) was administered (300-500 μl i.p.). […] These rats are pretreated with the EET analog […].) for seven days in drinking water and then on day 7 administered CP as a single injection (7 mg/kg i.p.) followed by another five days treatment with EET-A. […] One day before the rats were sacrificed, urine of each rat was collected over a 24-h period, and the volume was measured. Five days after CP or DMSO administration, rats were anesthetized for blood sample collection followed by euthanasia and tissue collection. Urine and plasma samples were kept frozen at -80° C. until analyzed. The kidneys were removed, washed with physiological saline and stored at -80° C. until used for RT-PCR analysis, thiobarbituric acid reactive substance (TBARS) measurement and caspase 3 activity assay. […] The levels of blood urea nitrogen (BUN) (BioAssay Systems, Hayward, Calif., USA) and serum creatinine (Cayman Chemical Company, Ann Arbor, Mich., USA) were measured spectrophotometrically using commercial kits. Urinary content of creatinine and protein were measured using commercial kits (Cayman Chemical Company, Ann Arbor, Mich., USA), and the activity of urinary N-acetyl-b-glucosaminidase (NAG) in the urine was measured by a kit from Diazyme (Diazyme Laboratories, Poway, Calif., USA). While urine content of kidney injury molecule-1 (KIM-1) was measured using ELISA (R&D Systems, Inc. Minneapolis, Minn., USA). Malondialdehyde (MDA) is a thiobarbituric acid reactive substance (TBARS) that is formed as an end-product of lipid peroxidation and serves as an important index of oxidative stress. […] Using a commercially available kit (Cayman Chemical Company, Ann Arbor, Mich., USA), MDA was measured spectrophotometrically after reaction with thiobarbituric acid. […] Louis, Mo., USA). Kidney homogenate was prepared with a lysis Buffer (50 mM HEPES, pH 7.4, with 5 mM CHAPS and 5 mM DTT). […] The caspase 3 activity is expressed as nmol of AMC/min/μL. Real-Time analysis was carried out to assess the expression of oxidative (gp91phox, NOX1, SOD1, SOD2, SOD3), inflammatory (TNF-α, IL-6, apoptotic (Bax, Bak, Bcl-2) and endoplasmic reticulum stress (GRP78, caspase 12) related genes in the kidney. Total RNA was isolated from kidney homogenate using TRIzol LS reagents (Invitrogen Life Technologies, Carlsbad, Calif., USA) according to the manufacturer's instructions. The isolated RNA was treated with RNase-free DNase (Invitrogen, Carlsbad, Calif., USA) to remove traces of genomic DNA contamination. The mRNA samples were quantified by spectrophotometry at 260 nm and 1 μg of total RNA was reverse-transcribed to cDNA using iScriptTM Select cDNA Synthesis Kit (Bio-Rad, Hercules, Calif., USA). The target gene expression was quantified by iScript One-Step RT-PCR Kit with SYBR green using MyiQTM Single Color Real-Time PCR Detection System (Bio-Rad Laboratories, Hercules, Calif., USA). Each amplified sample in all wells was analyzed for homogeneity using dissociation curve analysis using iQ5 Optical System Software, Version 2.1 (Bio-Rad Laboratories, Hercules, Calif., USA). […] In analyzing the relative expression of the target genes, the Ct values were normalized to a housekeeping gene (pgk1). Statistical analyses were carried out for at least 5-7 experimental samples in each experimental group. Primers used in this study were designed based on several earlier reports. […]
# [2] = tested on: Hela, NCCIT and U87 cancer cell lines; assay: Cell viability by alamar blue assay in cancer cell lines; type: cell-based, human; conditions: 72 h
# Experimental: (§1) In this study, HEK293, U87MG, Hela cell-lines were obtained from the ATCC (Manassas, Va., USA) (HEK293, U87MG, Hela), and NCCIT was collected from Department of Pediatrics, UT Southwestern Medical Center at Dallas, Tex., USA. All cell lines were maintained in DMEM or RPIM with 10% fetal bovine serum and penicillin/streptomycin purchased from Life Technologies (Grand Island, N.Y., USA). Cisplatin was purchased from either Sigma (St. Louis, Mo., USA) or CalBiochem/EMD Biosciences (Billerica, Mass., USA). Cells were seeded in 96-well plates at 500 to 4,000 cells per well depends on cell type. […] Cell viability was measured by alamar blue assay using resazurin (Sigma Aldrich) according to the manufacturer's guidelines. Viability results were measured by fluorescence/absorbance in a 96-well plate reader from BMG Labtech (Cary, N.C., USA) and the IC50 was calculated by GraphPad Prism5 software (GraphPad Software Inc, La Jolla, Calif., USA).
# [3] = tested on: NCCIT cells; assay: Cell viability by alamar blue assay, cisplatin with concurrent EET-A; type: cell-based, human; conditions: concurrent application of EET-A and cisplatin; NCCIT cancer cell line
# Experimental: as §1
substance,measurement,setting,value
Disodium (S)-2-(13-(3-pentylureido)tridec-8(Z)-enamido)succinate [EET-A],BUN,"[1]; 10 mg/kg/d p.o., cisplatin 7 mg/kg i.p., day 5 after cisplatin, vehicle 241±51",108 ± 30 mg/dL
same,plasma creatinine (PCr),"[1]; 10 mg/kg/d p.o., day 5 after cisplatin, vehicle 3.1±0.2",2.0 ± 0.2 mg/dL
same,kidney TBARS formation,"[1]; 10 mg/kg/d p.o., vehicle 16±2",7 ± 1 µmol/g
same,"reductions in renal mRNA expressions of inflammatory markers (TNF-α, IL-6, interleukin-1β)",[1]; cisplatin-administered rats,40-60%
same,proteinuria,"[1]; cisplatin-administered rats, vehicle 53±5",33 ± 8 mg/day
same,reductions in the elevated levels of serum creatinine and BUN,"[1]; five days after cisplatin, vs. vehicle",30-50%
same,NAG,"[1]; urinary, 10 mg/kg/d p.o., vehicle 3.0±0.6",0.5±0.1 U/d
same,KIM-1,"[1]; urinary, 10 mg/kg/d p.o., vehicle 296±94",85 ± 29 ng/day
same,reduction in urinary excretion of NAG and KIM-1,[1]; vs. cisplatin rats treated with vehicle,30-50%
same,reduction of cisplatin-induced proteinuria,[1]; vs. vehicle,≥ 40%
same,reduction in elevated renal expressions of GRP78 and caspase 12 mRNAs,[1]; vs. vehicle treatment,2-4 fold
same,decrease in kidney expression of NOX1 and gp91phox mRNAs,[1]; vs. vehicle-treated cisplatin rats,2-3 folds
same,effect on cell number / growth,[2],no observable effects; also recorded: no effect
same,influence on cisplatin's chemotherapeutic effect,[3],did not influence
